Measurements as given in patent US20180291123A1, “DI-FUNCTIONALIZED HYALURONIC ACID DERIVATIVES AND HYDROGELS THEREOF” (THE BROAD OF REGENTS OF THE UNIVERSITY OF TEXAS SYSTEM, priority 2015, published 2018).
No end group written: not given here.

How the values were obtained:
[1] = test system: mouse embryonic stem cells; experiment: Differentiation of mouse embryonic stem cells on IKVAV concentration gradient PEG hydrogels; assay type: cell-based; settings: 3 days of differentiation
hiPSC derived NSC = hiPSC derived NSC in 3D matrix with coupled IKVAV; assay type: cell-based, human; settings: peptide coupled within a 3D matrix, preliminary data

Substance: IKVAV (also: tethered in PEG hydrogel)
- toxicity ([1]; high concentration of tethered peptide): toxicity evident
- neurite extension ([1]; low concentration of tethered peptide): lack of neurite extension
- effect on cellular survival, neurite extension and differentiation ([1]; tethered peptide concentration gradient in PEG hydrogels, β3 tubulin staining): concentration dependent effect
- survival and neurite extension (hiPSC derived NSC): can support survival and neurite extension
